Reference: ChEMBL document CHEMBL3988442, “University of Dundee, Small-Polar-MMV Screening Library” (2021)
Where “and” joins values, the source holds several entries; their conditions need not be identical. Equal values may be shown once.

Columns and labels:
[1] = microbe, parasite or virus in culture; details: Mycobacterium tuberculosis, 96 h, read-out: pIC50 (converted)
[2] = microbe, parasite or virus in culture; details: Mycobacterium tuberculosis, 72 h, read-out: pIC50 (converted)
[3] = In vitro enzyme assay to detect hydrolysis of chlorophenol red-beta-D-[…] directly proportional to the number of Toxoplasma stably expressing beta-galactosidase; format: functional, organism-based, Toxoplasma gondii; details: for IC50: Toxoplasma gondii

SMILES | IC50 [1] | IC50 [2] | IC50 [3] | pIC50 [3]
Brc1ccc(NCc2ccc(Cn3ccnc3)cc2)nc1 | 4.63 µM | 3.73 µM | 29.6 µM | 
CCc1nccn1CCNC1CCN(c2nc3ccc(Cl)cc3s2)CC1 | 18.4 µM | 34 µM | 8.99 µM | 
CCCc1nc(NCCc2ccccc2)c2c(n1)c(C)nn2CC | 38.5 µM | 48.8 µM | 9.84 µM | 4.958
NCCc1ccc(-n2cccn2)cc1 | 191 µM | 188 µM | > 50.1 µM | 
Fc1cccc(-c2cccc(N3CCC(NC4CCCOC4)CC3)c2)c1 (stereo unspecified) | 30.8 µM | 27.4 µM | 26.2 µM | 
c1ccc(C2CNCCCO2)cc1 (stereo unspecified) | 306 µM | 166 µM | > 50.1 µM | 
NCCC1CSc2ccccc2O1 (stereo unspecified) | 170 µM | 129 µM | > 50.1 µM | 
Brc1ccc(N2CCNCC2)nc1 | > 501 µM | 185 µM | > 50.1 µM | 
c1ccc(COCCc2noc(C3CNC3)n2)cc1 | 270 µM | 222 µM | 24.9 µM | 
Cn1nc2n(c1=O)CCN(Cc1ccc(Br)s1)CC2 | > 501 µM | 139 µM | > 50.1 µM | 
CC(C)c1ccc(C(CN)N2CCc3sccc3C2)cc1 (stereo unspecified) | 24.8 µM | 20.4 µM | 13.4 µM | 5.076
CCOC(=O)C(O)c1cc(Br)c2c(c1)OCO2 (stereo unspecified) | > 501 µM | 223 µM | > 50.1 µM | 
CC1CCN(C(=O)CSc2nncs2)CC1 | 23.8 µM | 22.7 µM | > 50.1 µM | 
O=C(CN1CCC=C(F)C1)Nc1cccc(F)c1 | 278 µM | 300 µM | > 50.1 µM | 
NCCNC(=O)c1ccc(-c2ccc(Cl)cc2)s1 | 103 µM | 67.3 µM | > 25.1 µM | 
NCC(O)c1ccc(-c2ccccc2)cc1 (stereo unspecified) | 97.4 µM | 104 µM | > 25.1 µM | 
CCNc1ncc2c(n1)CN(c1ccc(CC)cc1)C2=O | > 50.1 µM |  | > 50.1 µM | 
CCn1nc(C)c2nc(C(C)C)nc(NCC(C)C)c21 | 49.2 µM | 47.1 µM | 25.4 µM | 
CN(C)C(=O)Nc1cc(F)cc(F)c1 | 30.6 µM | 30.2 µM | 2.1 µM | 
Nc1nnc(SCc2ccc(Cl)s2)[nH]1 | 313 µM | 307 µM | > 50.1 µM | 
COc1ccc(S(=O)(=O)N(C)C)cc1NCC1CC1 | > 501 µM | 299 µM | > 50.1 µM | 
Cc1cccc(OCCc2noc(C3CNC3)n2)c1 | 163 µM | 89.2 µM | 8.49 µM | 
Cc1cc(NC(=O)C(C)C)n(-c2nc(C)c(C)c(=O)[nH]2)n1 | 9.46 µM | 4.11 µM | 1.51 µM | 5.713

SMILES | IC50 [1] | IC50 [2] | IC50 [3] | pIC50 [3]
OCCNCCNCc1ccc(-c2cccc(Cl)c2)o1 | 253 µM | 84.4 µM | > 25.1 µM | 
Nc1n[nH]c(SCc2ccc3c(c2)OCCO3)n1 | > 501 µM | > 501 µM | > 50.1 µM | 
Cc1ccc(F)cc1S(=O)(=O)N1C[C@H](C2CC2)[C@@H](N)C1 | > 501 µM | 259 µM | > 50.1 µM | 
COCCNc1nnc(SCc2ccc(Br)cn2)s1 | > 501 µM | 276 µM | > 50.1 µM | 
CCCn1c(N2CCCC(C)C2)nc2c(C)nn(C)c2c1=O (stereo unspecified) | > 50.1 µM |  | 22.2 µM | 4.506
CCCNS(=O)(=O)c1nc2nc(C)cc(C)n2n1 |  |  | > 50.1 µM | 
CCNc1ncc2c(n1)CN(c1ccc(C)c(C)c1)C2=O |  |  | > 50.1 µM | 
CNC(=O)[C@@H]1CSCN1c1ccc(C(F)(F)F)cn1 |  |  | > 50.1 µM | 
Cc1cc(NCCCOC(C)C)c2nncn2n1 |  |  | > 50.1 µM | 
CCOCC(C)OC(=O)c1ccnn1C (stereo unspecified) |  |  | > 50.1 µM | 
CCCn1ncc(-c2ccnc(N[C@@H]3C[C@@H]4CC[C@H]3C4)n2)c1C |  |  | 5.59 µM | 
NC(=O)C1CCN(c2nccc(-c3c[nH]nc3C3CCCCC3)n2)CC1 |  |  | 8.32 µM | 
CCCc1ccc(C(=O)N[C@@H]2CCOC[C@H]2O)cc1 |  |  | > 50.1 µM | 
CCC(=O)N1CCN(c2nc(C)nc3c(C)nn(C)c23)CC1 |  |  | > 50.1 µM | 
CC(=O)N1CC2(CCCN(Cc3ccc(Cl)cc3)C2)Cc2ccccc21 (stereo unspecified) |  |  | 10.4 µM | 4.953
C1CC(C2CNC2)CCO1 |  |  | > 50.1 µM | 
O=C1NCCN(C(=O)c2ccc(Br)o2)C1c1cccs1 (stereo unspecified) |  |  | > 50.1 µM | 
CC(C)(CO)NCC(O)c1cccc(F)c1 (stereo unspecified) |  |  | > 50.1 µM | 
CCC1=NC(SCC(=O)c2ccc(C)cc2)c2cc(CC)sc2N1 (stereo unspecified) |  |  | > 50.1 µM | 
CSCc1ccc(C(=O)N(C)Cc2cnccn2)o1 |  |  | > 50.1 µM | 
Cc1[nH]c2ccccc2c1-c1ccnc(N[C@@H](CO)C(C)C)n1 |  |  | 19.8 µM | 
Cc1nc2cc(C3CCN(Cc4cccc(F)c4F)C3)nn2c(O)c1C (stereo unspecified) |  |  | 10.5 µM | 
CCCc1ccc2oc(C(=O)N3CCC(O)CC3)c(C)c2c1 |  |  | > 50.1 µM | 

SMILES | IC50 [1] | IC50 [2] | IC50 [3] | pIC50 [3]
Cc1ccc(C(=O)NCCN2CCOCC2)c(C)c1 |  |  | > 50.1 µM | 
C1CN[C@@H]2CNC[C@@H]2C1 |  |  | > 50.1 µM | 
CCn1nc(-c2ccc(F)cc2)oc1=O |  |  | > 50.1 µM | 
CCNc1ccc(C(F)(F)F)cn1 |  |  | > 50.1 µM | 
CC(NCC(=O)Nc1ccc(N2CCCCCC2)cc1)c1cccs1 (stereo unspecified) |  |  | 19.9 µM | 
COCc1nnc(-c2cccc(C(=O)N(C)CC(C)(C)C)c2)o1 |  |  | > 50.1 µM | 
COc1ccc(NS(=O)(=O)c2cnc(NC(C)=O)s2)cc1 |  |  | > 50.1 µM | 
Cc1cc(C(=O)Nc2ccc3c(c2)CC(=O)N3)c(C)o1 |  |  | > 50.1 µM | 
Cc1ccoc1C(=O)NC1CCN(Cc2csc3c(F)cccc23)CC1 |  |  | 8.38 µM | 
CCc1cc(=O)[nH]c(-c2ccc(NCCc3ccc(O)cc3)nc2)n1 |  |  | 1.18 µM | 
CCCC(=O)N1CCN(C(=O)NCC)CC1 |  |  | > 50.1 µM | 
Cc1cc(CN2CCC3(CC2)COC(COc2ccccn2)C3)no1 (stereo unspecified) |  |  | > 50.1 µM | 
Cc1cc(C(=O)Nc2cnn(CC(F)(F)F)c2)nc(N(C)C)n1 |  |  | > 50.1 µM | 
CN(C)c1ncc2c(n1)CN(C1CCSCC1)C2=O |  |  | > 50.1 µM | 
Nc1cccnc1NCc1cccnc1 |  |  | > 50.1 µM | 
CCCc1nc(CN(CC)C(=O)c2onc3ccccc23)no1 |  |  | > 50.1 µM | 
CC(C)Cn1cc(NC(=O)N2CCC(O)C2)cn1 (stereo unspecified) |  |  | > 50.1 µM | 
CCc1nc(C)cn1C(=O)Nc1ccccc1 |  |  | 5.1 µM | 
Cc1cc(=O)cc(C(=O)NCCC(C)n2ccnc2)o1 (stereo unspecified) |  |  | > 50.1 µM | 
CCn1nc(C)c2nc(C(C)C)nc(NCC(C)O)c21 (stereo unspecified) |  |  | > 50.1 µM | 
O=C(c1ccc(-c2ccc(O)nc2)s1)N1CCSCC1 |  |  | 36.8 µM | 4.349
Cc1cc(C(=O)NCc2ccco2)nn1C |  |  | > 50.1 µM | 
COC(=O)c1cnc2c(c(C)nn2C)c1OC |  |  | > 50.1 µM | 

SMILES | IC50 [1] | IC50 [2] | IC50 [3] | pIC50 [3]
Cc1nnc(SCCO)s1 |  |  | > 50.1 µM | 
Cc1c(-c2ccccc2)nc2c(c(C)c(C)n2CCN(C)C)c1N |  |  | 15.6 µM | 
CCc1ccc(NC(=O)C(C)Nc2cccc3c2OCCO3)cc1 (stereo unspecified) |  |  |  | 5.373 and 4.972
NCCc1cc(-c2ccncc2)[nH]n1 |  |  | > 50.1 µM | 
Cc1ccc(CN(C)C(=O)Cn2cnnn2)o1 |  |  | > 50.1 µM | 
CCn1nc(C)c2nc(C(C)C)nc(NC)c21 |  |  | > 50.1 µM | 
CCn1ccc(-c2cc(NCCCOc3ccccc3C)nc(C)n2)n1 |  |  | 11.7 µM | 
c1ccc(-c2nn3c(CN4CCOCC4)nnc3s2)nc1 |  |  | > 50.1 µM | 
CC(C)[C@@H]1CN(c2ncc(F)cn2)C[C@H]1NS(=O)(=O)N(C)C |  |  | > 50.1 µM | 
Cc1noc(CCCNC(=O)c2ccon2)n1 |  |  | > 50.1 µM | 
c1cnc(-c2nn3c(CN4CCCCC4)nnc3s2)cn1 |  |  | > 50.1 µM | 
COc1ccc(-n2nnc(C(=O)O)c2-c2ccccn2)cc1 |  |  | 24.8 µM | 
Cc1cncc(C(N)=O)c1 |  |  | > 50.1 µM | 
Nc1ccc(CN2CCN(CCO)CC2)cn1 |  |  | > 50.1 µM | 
COCC(=O)N1C[C@@H](OCc2ccncc2)[C@@H]2OCCC[C@@H]21 |  |  | > 50.1 µM | 
CCN1CCN(Cc2nnnn2C2CC2)CC1 |  |  | > 50.1 µM | 
Cc1ccc(F)cc1C(=O)NC1CCCNC1 (stereo unspecified) |  |  | > 50.1 µM | 
Cn1cc(CN(C(=O)c2ccc(N)nc2)C2CC2)cn1 |  |  | > 50.1 µM | 
Cc1nc(C2(NCc3c(C)nn(C)c3N3CCOCC3)CCC2)no1 |  |  | 25.3 µM | 
COc1ccc(-c2nnc(SC(C)C(=O)NC3CCCC3)[nH]2)c(OC)c1 (stereo unspecified) |  |  | > 50.1 µM | 
CCc1cnc(N2CCNCC2)s1 |  |  | > 50.1 µM | 
CCCNC(=O)c1cc(-c2cnc(N3CCCC3)nc2)cn1C |  |  |  | 4.78 and 4.438
CC(C)CC1NCCNC1=O (stereo unspecified) |  |  | > 50.1 µM | 

SMILES | IC50 [1] | IC50 [2] | IC50 [3] | pIC50 [3]
COCCC1(CN2CCC(C(N)=O)C2)CCC1 (stereo unspecified) |  |  | > 50.1 µM | 
COC(=O)c1cnc(F)cn1 |  |  | > 50.1 µM | 
CO[C@H]1[C@@H]2CC[C@H]1CN(c1nc(C)nc3ccsc13)C2 |  |  | 6.77 µM | 
COC(=O)c1cnc2[nH]nc(C)c2c1 |  |  | > 50.1 µM | 
Cn1cccc1C(=O)OCCCN1CCOCC1 |  |  | > 50.1 µM | 
Cc1ccc(CN2Cc3nnn(C)c3C(COCc3ccccc3)C2)s1.O=C(O)C(F)(F)F (stereo unspecified) |  |  | 7.69 µM | 4.987
O=C(NC1CCCSC1)N(CCO)C1CC1 (stereo unspecified) |  |  | > 50.1 µM | 
CCCc1nc2c(c(C)c(C)n2Cc2ccccn2)c(N)c1CC |  |  | 10.4 µM | 4.935
CCn1c(NCc2cccnc2)nc2c(C)nn(C)c2c1=O |  |  | > 50.1 µM | 
CN1C(=O)c2cccn2CC1CNC(=O)c1ccco1 (stereo unspecified) |  |  | > 50.1 µM | 
C[C@@H]1CN(C2CCN(c3ccccc3F)CC2)CC[C@]1(C)O |  |  | > 50.1 µM | 
Cc1nn(C)c2c(=O)n(Cc3ccc(F)cc3)nnc12 |  |  | > 50.1 µM | 
CCOCCNC(=O)c1cccnc1Sc1cc(OC)ccc1OC |  |  | > 50.1 µM | 
c1cc(-c2c[nH]nc2C2CCCCC2)nc(N2CCCCCC2)n1 |  |  | 6.23 µM | 
CCCn1c(N2CCCCC2)nc2c(C)nn(C)c2c1=O |  |  | 34.4 µM | 
CC(=O)N1C[C@@H](c2ccsc2)[C@@H]2CN(Cc3ccccc3C)CC[C@@H]21 |  |  | 18.9 µM | 
Cc1cc(C(=O)N(C)Cc2cccs2)nc(N2CCCCC2)n1 |  |  | > 50.1 µM | 
CNC(=O)CCN1CC(Oc2ccc(C)cc2)C1 |  |  | > 50.1 µM | 
O=C(NCCn1cnc(C2CCCC2)cc1=O)NCc1cccs1 |  |  | 7.44 µM | 
c1csc(-c2noc(C3CNC3)n2)c1 |  |  | 2.96 µM | 
CCN(Cc1nonc1C)C(=O)Cn1nc(C(F)(F)F)cc1C1CC1 |  |  | > 50.1 µM | 
O=C(N[C@H]1COC[C@@H]1N1CCCCC1)c1cnc[nH]1 |  |  | > 50.1 µM | 
